Experimental findings from patent US9617602B2, “Methods and compositions for determining resistance to androgen receptor therapy” (Aragon Pharmaceuticals, Inc., priority 2012, dated 2017) are described below.

SMILES strings stand for the structures. Substitutions are numbered along the chain they refer to.

One test has as its target wild-type VP16-AR (Homo sapiens, UniProt P10275).
The target of the next test is T1, wild-type AR (Homo sapiens, UniProt P10275, DEL79-80/DUP473-473).
T1 sequence (P10275 with tags, fused parts or gaps DEL79-80/DUP473-473): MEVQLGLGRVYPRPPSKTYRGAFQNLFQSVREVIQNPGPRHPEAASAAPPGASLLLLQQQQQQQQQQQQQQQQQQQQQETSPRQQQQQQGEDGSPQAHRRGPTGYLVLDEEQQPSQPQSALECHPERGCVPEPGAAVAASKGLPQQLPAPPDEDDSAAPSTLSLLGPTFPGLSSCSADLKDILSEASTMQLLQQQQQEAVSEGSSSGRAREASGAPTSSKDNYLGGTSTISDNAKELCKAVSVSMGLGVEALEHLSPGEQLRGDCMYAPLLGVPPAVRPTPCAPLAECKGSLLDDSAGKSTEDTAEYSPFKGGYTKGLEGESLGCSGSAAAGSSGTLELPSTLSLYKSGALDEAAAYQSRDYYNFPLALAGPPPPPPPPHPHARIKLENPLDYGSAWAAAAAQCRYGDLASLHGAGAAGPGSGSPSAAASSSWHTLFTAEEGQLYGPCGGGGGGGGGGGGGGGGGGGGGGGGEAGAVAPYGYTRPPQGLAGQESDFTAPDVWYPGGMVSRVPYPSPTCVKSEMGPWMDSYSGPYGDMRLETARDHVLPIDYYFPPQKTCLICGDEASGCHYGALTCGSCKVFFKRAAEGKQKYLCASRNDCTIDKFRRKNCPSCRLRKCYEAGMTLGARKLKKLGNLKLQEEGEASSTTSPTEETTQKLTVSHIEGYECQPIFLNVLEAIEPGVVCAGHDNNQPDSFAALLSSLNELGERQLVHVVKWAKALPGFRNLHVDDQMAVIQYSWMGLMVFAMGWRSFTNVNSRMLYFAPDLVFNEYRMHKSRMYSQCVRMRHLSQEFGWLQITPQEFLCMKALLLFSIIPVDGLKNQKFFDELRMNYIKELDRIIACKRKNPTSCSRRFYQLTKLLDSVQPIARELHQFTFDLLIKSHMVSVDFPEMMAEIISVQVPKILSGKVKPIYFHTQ

The next test concerns the target T2, F876L AR (Homo sapiens, UniProt P10275, DEL79-80/DUP473-473/F877L).
T2 sequence (P10275 with tags, fused parts or gaps DEL79-80/DUP473-473/F877L): T1 sequence (P10275 with tags, fused parts or gaps DEL79-80/DUP473-473) with F876L

The target of the next test is F876L VP16-AR (Homo sapiens, UniProt P10275, DEL79-80/DUP473-473/F877L).

For `CC(C)(O)C(=O)Nc1ccc([N+](=O)[O-])c(C(F)(F)F)c1` [Hydroxyflutamide, hydroxyflutamide], the “AR-VP16 WT Emax” value on wild-type VP16-AR is 42.28 ± 4.44 percent maximal R1881 response. Besides, the “4X ARE Reporter Assay WT Emax” value at wild-type AR is listed as 28.9 ± 5.0 percent maximal R1881 response. For the same molecule, the “4X ARE Reporter Assay F876L Emax” value at F876L AR is reported as 0.8 ± 0.2 percent maximal R1881 response. In addition, at F876L VP16-AR, the “AR-VP16 F876L Emax” value was 5.36 ± 5.35 percent maximal R1881 response.
